From US9616025B2, “Compressed tablet containing Δ9-tetrahydrocannabinol, method for its manufacture and use of such tablet in oral treatment” (Echo Pharmaceuticals B.V., priority 2013, dated 2017)
Read-outs that look alike come from different tables or passages of the source.

Experiments:
[1] = Rate of dissolution of THC, Ph. Eur. 2.9.3, 1 wt % SDS in water pH 7; format: physicochemical; details: 5 mg THC, pH 7, 36-41° C.
Protocol: The rate of dissolution of THC from the compressed tablets described in Example 2 was tested according to European Pharmacopeia (Ph. Eur. 2.9.3) for oral tablets (5 mg THC). The rate of dissolution of pure THC (5 mg) was also measured according to the same method for comparison.
The dissolution medium consisted of a solution of 1 wt % SDS in water. The pH of the medium had been adjusted to pH 7 with diluted HCl. During the experiments, the temperature of the dissolution media was maintained between 36 and 41° C. under stirring.
After dropping the tablets in the dissolution medium, samples were taken at various time intervals with a disposable syringe. The samples were filtered immediately over a syringe filter into a HPLC vial and analyzed by HPLC.
Tablets were prepared as in Example 2, except that the sucrose fatty ester (SML) was substituted by glyceryl monostearate (GMS). Dissolution tests as described in example 3 were performed with these tablets and the tablets described in Example 2.

[2] = cited from earlier work; for reported tmax-values: previous studies

Compound	% (w/w) of THC dissolved ([1]; 1 min)	% (w/w) of THC dissolved ([1]; 4 min)	% (w/w) of THC dissolved ([1]; 8 min)	% (w/w) of THC dissolved ([1]; 15 min)	Plasma THC maximum concentrations ([2]; after a 20 mg dose of oral THC (Ohlsson 1980))	bioavailability ([2]; inhaled (Ohlsson 1982))	time of peak concentrations post dose ([2]; oral)	bioavailability ([2]; orally administered (Ohlsson 1982))	reported tmax-values [2]	time to maximal concentration of the active metabolite 11-OHTHC ([2]; published)
CCCCCc1cc(O)c2c(c1)OC(C)(C)[C@@H]1CCC(C)=C[C@@H]21 [THC, Δ9-tetrahydrocannabinol]	1.0 % (w/w)	3.5 % (w/w)	5.8 % (w/w)	10.2 % (w/w)	4.4 to 11.0 µg/L	up to 27%	1 to 5 h	approximately 6%	1 to 4 h	
CCCCCc1cc(O)c2c(c1)OC(C)(C)[C@@H]1CCC(C)=C[C@@H]21 [dronabinol]										120 to 204 min
CCCCCCC(C)(C)c1cc(O)c2c(c1)OC(C)(C)C1CCC(=O)CC21 (centres unmarked) [nabilone]									2 to 4 h	
